Results reported in patent publication US5302609A, “Treatment of diabetic nephropathy” (The Regents of the University of Michigan, priority 1992, dated 1994).
Like-named read-outs stand apart in the source and are kept apart here.

How the values were obtained:
[1] = system: Madin-Darby canine kidney (MDCK) cells; settings: Shayman et al. 1991; cited from earlier work
[2] = 100 mg/kg, cited from earlier work
[3] = system: non-diabetic control male rats; assay: PDMP treatment of non-diabetic control rats; format: in vivo, rat
Description: (§1) Because there is gender specific expression of renal GSLs, only male rats were used. Shukla, A. et al., am. J. Physiol. 262: F24-F29 (1992). Male rats were fed a standard pellet laboratory chow and were provided with water ad libitum. Diabetes was induced by the administration of streptozotocin (80 mg/kg i.p.) dissolved in 10 mM Na citrate, pH 5.5. Controls were injected with buffer alone. Animals were provided with immediate access to food. Blood was obtained from the tail vein and blood glucose levels were determined with a Beckman glucose analyzer 48 h following the injection and at the time of organ resection. […] Therefore only animals with blood glucose concentrations between 13.5 and 32 mM were utilized. At the end of the experimental period, the animals were weighted, anesthetized with ether, and their kidneys removed and weighed. For UDP-Glc measurements, the kidneys were frozen in liquid nitrogen immediately following removal.
(§2) The GlcCer synthase inhibitor PDMP was administered as the DL-hydrochlorideto both diabetic and control animals 14 days following the induction of diabetes with streptozotocin (see Table IV results). […] See Shukla, A. et al., J. Lipid. Res. 32:713-722 (1991). The piperonyl butoxide was prepared by dissolution in corn oil at a concentration of 150 mg/ml oil. The butoxide solution was administered intraperitoneally prior to injection of PDMP. On the first day of treatment this was given 4 h before PDMP treatment; on days 2 to 4 of treatment it was administered just prior to the PDMP injection. PDMP was prepared as an emulsion with the detergent Myrj 52 in normal saline, buffered with sodium acetate. The final concentrations of PDMP, Myrj 52 and sodium acetate in mg/ml were 6, 12, and 8 respectively. The PDMP was given intraperitoneally as a dose of 100 mg/kg body weight.
(§3) Glomerular volumes were measured on paraffin sections of kidney fixed in formalin and stained with periodic acid Schiff reagent. The measurements required the determination of the mean glomerular random cross sectional area (A(G)). Glomerular areas were measured using a Javelin Chromachip camera (Javelin Electronics, Torrance, Calif.) attached to an Olympus BH-2 microscope interfaced with a Macintosh II computer containing an Image Capture 2 frame grabber (Scion Corp., Walkerville, Md.) and image 1.38B14 software (NIH Public Software, Bethesda, Md.). Glomerular volumes were derived by the method described in Weibel "Stereological Methods. Practical Methods for Biological Morphometry," (academic Press, London) p. 44-45 (1979) as applied by Hirose, K. et al., Kidney Int. 21:689-695 (1982).
(§4) To determine whether the increase in glucolipid formation in diabetes was functionally important, the following experiment was performed. One group of animals was made diabetic with streptozotocin, and the other group received vehicle alone. After two weeks, the control and diabetic groups were divided according to the weights of the rats. Half of the non-diabetic and half of the diabetic animals received DL-threo-PDMP, which is the racemic mixture of the compound of the Formula I where n is 8. The control non-diabetic and diabetic groups were pair fed and received vehicle alone. After 4 days of treatment the animals were weighed and sacrificed. In Table V, the data are expressed as the mean ± S.D. All animals received the cytochrome P450 inhibitor piperonyl butoxide (600 mg/kg) intraperitoneally. Treated control and diabetic animals received DL-threo-PDMP.

[4] = system: streptozotocin-induced diabetic male rats; assay: PDMP treatment of streptozotocin diabetic rats (renal hypertrophy); format: in vivo, rat
Description: as §1, §2, §3, §4

[5] = in vivo
[6] = Control + PDMP, n=11, DL-threo-PDMP 100 mg/kg i.p. 4 days with piperonyl butoxide, mean ± S.D.
[7] = Diabetic + PDMP, n=7, DL-threo-PDMP 100 mg/kg i.p. 4 days with piperonyl butoxide, mean ± S.D.

SMILES | endogenous glycosphingolipid content [1] | half life of PDMP ([2]; animals exposed to the mixed function oxidase inhibitor PB) [h] | half life of PDMP ([2]; without piperonyl butoxide (PB)) [h] | Body Weight ([3]; Control + PDMP, n=11, DL-threo-PDMP 100 mg/kg i.p. 4 days with piperonyl butoxide 600 mg/kg i.p., mean ± S.D.) [g] | BUN [3, 6] [mg/dL] | Kidney Weight [3, 6] [g] | glomerular size ([3]; morphometric analysis, five kidneys per group, non-diabetic rats) | Creatinine ([3]; serum, Control + PDMP, n=11, DL-threo-PDMP 100 mg/kg i.p. 4 days with piperonyl butoxide, mean ± S.D.) | kidney weights of PDMP-treated diabetic animals compared with untreated diabetic animals ([4]; 4 days of treatment, animals hyperglycemic) | Body Weight ([4]; Diabetic + PDMP, n=7, DL-threo-PDMP 100 mg/kg i.p. 4 days from 14 days after streptozotocin, with piperonyl butoxide 600 mg/kg i.p., mean ± S.D.) [g] | BUN [4, 7] [mg/dL] | Kidney Weight [4, 7] [g] | glomerular volumes compared with control groups ([4]; morphometric analysis, five kidneys per group, diabetic animals treated with PDMP) | renal histology (drug-induced toxicity) ([4]; periodic acid Schiff stained kidney sections: acute tubular necrosis, acute or chronic inflammation, glomerular pathology) | Creatinine ([4]; serum, Diabetic + PDMP, n=7, DL-threo-PDMP 100 mg/kg i.p. 4 days with piperonyl butoxide, mean ± S.D.) | effect on renal growth or function [5]
OC1C(O)C(O)C2OC2C1O (centres unmarked) [conduritol B epoxide, reference compound] | increased |  |  |  |  |  |  |  |  |  |  |  |  |  |  | 
CCCCCCCCCC(=O)N[C@H](CN1CCOCC1)[C@H](O)c1ccccc1 (relative stereo) [PDMP, 1-phenyl-2-decanoylamino-3-morpholino-1-propanol] | decreased | 4 | 1 | 238 ± 21 | 13 ± 3.2 | 2.25 ± 0.27 | no effect | 0.31 ± 0.09 | significantly lower | 200 ± 11 | 28 ± 6.4 | 2.32 ± 0.19 | not significantly different | no evidence of acute tubular necrosis, acute or chronic inflammation, or glomerular pathology | 0.23 ± 0.05 | 
CCCCOCCOCCOCc1cc2c(cc1CCC)OCO2 [PB, piperonyl butoxide] |  |  |  |  |  |  |  |  |  |  |  |  |  |  |  | no effect
